Data taken from patent US6410542B1, “Aminotetrazole derivatives useful as nitric oxide synthase inhibitors” (G. D. Searle & Co., priority 1994, dated 2002).
Structures can show the parent of a compound that is named as a salt.

Tests used:
[1] = target: Human inducible NOS (hiNOS) (Homo sapiens, UniProt P35228); assay: Citrulline assay for nitric oxide synthase, hiNOS; assay type: biochemical
Procedure: Citrulline Assay for Nitric Oxide Synthase Nitric oxide synthase activity was measured by monitoring the conversion of L-[2,3-3H]-arginine to L-[2,3-3H]-citrulline (1,2). […] For constitutive NOS, calmodulin was included at a final concentration of 40-100 nM. Following incubation at 37° C. for 15 minutes, the reaction was terminated by addition of 300 μL cold buffer containing 10 mM EGTA, 100 mM HEPES (pH5.5) and 1.0 mM L-citrulline. The [3H]-citrulline was separated by chromatography on Dowex 50W X-8 cation exchange resin and radioactivity quantified with a liquid scintillation counter.

[2] = Physical properties on exposure to moisture in room air; assay type: physicochemical; conditions: normal room air
Text: It is also an advantage in that the compounds of the present invention have preferred physical properties as compared to compounds known in the art. […] In contrast, NIL, which is disclosed in WO 93/13055 when the hydrochloride salt can be isolated as a colorless crystal, but has the property of deliquescence. The compound quickly becomes a very viscous sticky oil upon exposure to moisture in normal room air which makes it difficult to handle.

Chain of Human inducible NOS (hiNOS) (P35228 whole entry): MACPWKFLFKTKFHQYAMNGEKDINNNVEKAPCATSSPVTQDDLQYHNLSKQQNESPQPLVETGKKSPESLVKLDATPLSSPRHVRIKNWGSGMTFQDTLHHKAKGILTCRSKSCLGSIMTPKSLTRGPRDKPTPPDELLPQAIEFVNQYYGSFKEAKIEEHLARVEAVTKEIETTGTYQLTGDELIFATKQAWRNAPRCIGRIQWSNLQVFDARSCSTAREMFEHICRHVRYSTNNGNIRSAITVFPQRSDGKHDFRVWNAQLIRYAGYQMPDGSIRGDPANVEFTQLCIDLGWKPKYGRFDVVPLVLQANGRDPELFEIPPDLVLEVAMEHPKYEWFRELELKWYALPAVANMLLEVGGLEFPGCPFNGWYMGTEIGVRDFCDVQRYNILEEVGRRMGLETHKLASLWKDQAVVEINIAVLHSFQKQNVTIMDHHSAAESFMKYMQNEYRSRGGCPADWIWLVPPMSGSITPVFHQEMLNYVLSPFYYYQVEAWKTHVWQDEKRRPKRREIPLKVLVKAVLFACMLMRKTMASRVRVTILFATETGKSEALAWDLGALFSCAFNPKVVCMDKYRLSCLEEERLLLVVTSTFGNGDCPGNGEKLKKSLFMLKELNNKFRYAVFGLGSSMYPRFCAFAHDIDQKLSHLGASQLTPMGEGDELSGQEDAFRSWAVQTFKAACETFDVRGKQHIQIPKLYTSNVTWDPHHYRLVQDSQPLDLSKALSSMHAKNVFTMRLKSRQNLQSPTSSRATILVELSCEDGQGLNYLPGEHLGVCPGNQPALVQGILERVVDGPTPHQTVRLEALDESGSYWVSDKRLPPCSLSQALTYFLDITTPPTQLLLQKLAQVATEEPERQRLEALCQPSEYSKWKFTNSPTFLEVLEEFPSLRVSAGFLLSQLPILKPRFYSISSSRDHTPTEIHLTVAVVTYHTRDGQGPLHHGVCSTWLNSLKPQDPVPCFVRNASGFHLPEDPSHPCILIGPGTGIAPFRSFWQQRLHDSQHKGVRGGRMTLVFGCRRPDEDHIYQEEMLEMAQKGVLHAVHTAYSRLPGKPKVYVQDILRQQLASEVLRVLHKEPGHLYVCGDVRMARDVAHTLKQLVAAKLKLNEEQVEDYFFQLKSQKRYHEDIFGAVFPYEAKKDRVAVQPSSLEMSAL

SMILES	Selectivity ([1]; hiNOS over hecNOS)	selectivity compared with NIL ([1]; in words)	IC50 ([1]; recombinant enzyme, L-arginine to L-citrulline conversion, 37° C., 15 minutes) [µM]	physical form / behaviour on exposure to moisture [2]
CC(=N)NCCCC[C@H](N)C(=O)Nc1nnn[nH]1 [Example 1, 2S-amino-6-[(1-iminoethyl)amino]-N-(1H-tetrazol-5-yl) hexanamide, Hydrate, Dihydrochloride]	113	more selective than NIL	21.4	crystalline product
CC(N)=NCCCC[C@@H](N)C(=O)O [NIL, reference compound]				deliquescence
